The source of these data is patent publication US10590056B2, “ERR modulators and uses thereof” (CITY OF HOPE, priority 2017, dated 2020).

Entries after “also recorded” stand apart in the source; their conditions may differ.

Holding throughout (assay type): cell-based
For one assay, the target named is T1, mouse ERRγ (Mus musculus, UniProt P62509).
T1 construct: expressed in transfected cells; host or cells: CV-1 cells, cytomegalovirus-driven expression vectors
T1 sequence (P62509 233-457 limits assumed): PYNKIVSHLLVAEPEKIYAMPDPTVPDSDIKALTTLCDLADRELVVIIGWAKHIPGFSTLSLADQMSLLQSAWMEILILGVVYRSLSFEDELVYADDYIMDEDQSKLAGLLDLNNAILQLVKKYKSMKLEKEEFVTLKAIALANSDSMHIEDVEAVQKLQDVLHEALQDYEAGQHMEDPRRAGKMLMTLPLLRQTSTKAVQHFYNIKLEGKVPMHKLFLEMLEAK
Nature of the assay: GAL4 DBD-ERRγ LBD cotransfection luciferase reporter assay in CV-1 cells. As to conditions: for IC50: CV-1 cells co-transfected with reporter and expression vectors, mouse ERRγ LBD; for activity on ERRγ, in words: cell-based cotransfection assay, 1g, 1h: at the higher dose. As for the experimental part: (§1) To assess the functional transcriptional activity of these compounds, cell-based assays using chimeric receptor Gal4 DNA-binding domain (DBD)-NR ligand binding domain cotransfection assay (LBDs of ERRα, ERRγ, and ERRβ) were performed. As an initial screen to determine the ERRγ and ERRβ inhibitory activity and selectivity, all compounds were evaluated for in vitro potency and selectivity by transfection testing, using CV-1 cells transfected with human and mouse ERRs. MH100×4 is a luciferase reporter with four copies of a GAL4 UASG response element, where GAL-I refers to the ligand-binding domain of the indicated receptor fused to the C-terminus of the GAL4 DNA-binding domain. Assays were performed using a Biomek automated workstation in which the genes for the nuclear receptor, as well as a plasmid containing a response element upstream of a luciferase cDNA, are transfected into CV-1 cells. Compounds were evaluated for their ability to inhibit human ERRs at 0.03, 0.1, 0.5, 1, 2.5, 3, and 10 μM test concentrations. […] Z-4-OHT used as a known ERRγ and ERRβ inverse agonist to compare the constitutive activity of unliganded ERRγ and ERRβ.
(§2) Cell culture. CV-1 cells were grown in Dulbecco's modified Eagle's medium supplemented with 10% resin charcoalstripped fetal bovine serum, 50 U/ml penicillin G, and 50 μg/ml streptomycin sulfate (DMEM-FBS) at 37° C. in 5% CO2. One day prior to transfection, cells were plated to 50%-80% confluence using phenol red free DMEM-FBS. The adenoviral construct, Ad-GFP and Ad-ERRα have been described.^55 Propagation of recombinant adenovirus was performed in 293 cells as described.^11
(§3) Cell based transactivation assays were performed in CV-1 cells as described.^49 ERR activity was assayed with a GAL4 reporter construct and fusion proteins containing the ligand binding domains of human ERRα, human ERRβ and mouse ERRγ linked to the DNA binding domain of yeast GAL4. Human ERα and ERβ were examined as full-length proteins using an estrogen receptor responsive reporter construct. Reporter constructs (300 ng/10^5 cells) and cytomegalovirus-driven expression vectors (20-50 ng/10^5 cells) were added as indicated along with CMX-β-gal (500 ng/10^5 cells) as an internal control. Cells were transiently transfected by Lipofectamine as described.^56 Cells were incubated with DNA complexed liposomes for 2 hours and subsequently treated for approximately 45 hr with phenol red free DMEM FBS containing the indicated compounds. After exposure to ligand, the cells were harvested and assayed for luciferase and β-galactosidase activity. […] Fold activation is reported.

For a further assay, the target named is T2, human ERRβ (Homo sapiens, UniProt O95718).
T2 construct: expressed in transfected cells; host or cells: CV-1 cells, cytomegalovirus-driven expression vectors
T2 sequence (O95718 208-432 limits assumed): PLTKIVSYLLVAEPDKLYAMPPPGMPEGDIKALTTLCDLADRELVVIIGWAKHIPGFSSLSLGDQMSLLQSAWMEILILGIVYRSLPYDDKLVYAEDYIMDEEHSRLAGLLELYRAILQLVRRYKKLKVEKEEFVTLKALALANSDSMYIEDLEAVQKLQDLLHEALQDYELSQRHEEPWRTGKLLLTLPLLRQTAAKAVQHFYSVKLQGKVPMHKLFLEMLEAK
Nature of the assay: GAL4 DBD-ERRβ LBD cotransfection luciferase reporter assay in CV-1 cells. To be noted: for IC50: CV-1 cells co-transfected with reporter and expression vectors, human ERRβ LBD; for identified as (inverse agonist class / selectivity): ERRα, ERRβ, ERRγ transactivation panel. As for the experimental part: as §1, §2, §3

The target of another assay is T3, human ERRα (Homo sapiens, UniProt P11474).
T3 construct: expressed in transfected cells; host or cells: CV-1 cells, cytomegalovirus-driven expression vectors
T3 sequence (P11474 193-421 limits assumed): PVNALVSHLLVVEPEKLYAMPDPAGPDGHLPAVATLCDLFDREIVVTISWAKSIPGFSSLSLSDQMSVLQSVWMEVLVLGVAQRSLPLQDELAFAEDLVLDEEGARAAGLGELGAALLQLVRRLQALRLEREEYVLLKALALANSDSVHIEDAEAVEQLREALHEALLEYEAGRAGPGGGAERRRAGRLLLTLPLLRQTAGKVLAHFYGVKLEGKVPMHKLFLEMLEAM
Nature of the assay: GAL4 DBD-ERRα LBD cotransfection luciferase reporter assay in CV-1 cells. As to conditions: for IC50: CV-1 cells co-transfected with reporter and expression vectors, human ERRα LBD; for activity on ERRα, in words: cell-based screening. As for the experimental part: as §1, §2, §3

Consider `COC(=O)CCC(=C(c1ccc(O)cc1)c1ccc(O)cc1)c1ccccc1` [Compound 1g, 5,5-Bis (4-hydroxyphenyl)-4-phenyl-pent-4-enoic acid methyl ester], for which, on mouse ERRγ, half-maximal inhibition (IC50) was put at 6500 nM and the “activity on ERRγ, in words” value is recorded as “not active”. Besides, at human ERRβ, it took 600 nM to reach half-maximal inhibition (IC50) and the “identified as (inverse agonist class / selectivity)” value was “selective inverse agonists for the ERRβ”. On human ERRα, the IC50 is greater than 10000 nM and the “activity on ERRα, in words” value is recorded as “not active”.
As to `COC(=O)C(C)CC(=C(c1ccc(O)cc1)c1ccc(O)cc1)c1ccccc1` (stereo not drawn) [Compound 1h, 5,5-Bis (4-hydroxyphenyl)-2-methyl-4-phenyl-pent-4-enoic acid methyl ester], on mouse ERRγ, the IC50 came to 5500 nM and the “activity on ERRγ, in words” value is listed as “not active”. For the same compound, at human ERRβ, the IC50 is 300 nM and the “identified as (inverse agonist class / selectivity)” value is recorded as “selective inverse agonists for the ERRβ”. At human ERRα, the IC50 is greater than 10000 nM and the “activity on ERRα, in words” value is listed as “not active”.
As for `CC(C)/C(=C(\c1ccc(O)cc1)c1ccc(OCCN(C)C)cc1)c1ccccc1` [Compound 3a, (Z)-4-[1-(4-Dimethylaminoethoxy-phenyl)-3-methyl-2-phenyl-but-1-enyl]-phenol], the IC50 against mouse ERRγ is 290 nM; against human ERRβ, 210 nM; against human ERRα, greater than 10000 nM. The “fold greater potency than Z-4-OHT on ERRγ” value at mouse ERRγ (compared to Z-4-OHT) is listed as 3 fold. The “identified as (inverse agonist class / selectivity)” value on human ERRβ was “ERRβ and ERRγ inverse agonists”. On human ERRβ (compared to Z-4-OHT), the “fold greater potency than Z-4-OHT on ERRβ” value amounted to 3 fold.
Take `CC(CO)C/C(=C(\c1ccc(O)cc1)c1ccc(OCCN(C)C)cc1)c1ccccc1` (stereo not drawn) [Compound 3n, (Z)-4-{1-[4-(2-Dimethylamino-ethoxy)-phenyl]-5-hydroxy-4-methyl-2-phenyl-pent-1-enyl}-phenol]: the IC50 at mouse ERRγ is 2500 nM; against human ERRβ, 2250 nM; against human ERRα, greater than 10000 nM. For the same compound, the “identified as (inverse agonist class / selectivity)” value at human ERRβ is “ERRβ and ERRγ inverse agonists”.
On to `CC/C(=C(\c1ccc(O)cc1)c1ccc(OCCN(C)C)cc1)c1ccccc1` [Compound Z-4-OHT, reference compound], for which the IC50 at mouse ERRγ was 600 nM; at human ERRβ it was 650 nM; on human ERRα it was greater than 10000 nM. The “activity on ERRγ, in words” value on mouse ERRγ is “has the required activity; also recorded: more potent than E-4-OHT”. Further, the “activity on ERRβ, in words” value on human ERRβ (cell-based cotransfection assay) is on record as “has the required activity; also recorded: more potent than E-4-OHT”.
